Experimental data: BindingDB's records for doi:10.1016/s0026-0495(96)90072-4 (Sandoz Pharma, 1996)
Positions of bridges follow the written chain, without caps; N, C: chain ends. Non-standard residues stand in square brackets, D forms with d. Residues, ends and D or L forms follow the SMILES beside them. *: point of attachment. d1Nal = N[C@H](Cc1cccc2ccccc12)C(=O)O; Asu = N[C@@H](CCCCCC(=O)O)C(=O)O; Nphe = O=C(O)CNCc1ccccc1; Ahp = NCCCCCCC(=O)O; Bn = c1ccc(C*)cc1

Experiments:
[1] = biological target: Somatostatin receptor type 5 (Homo sapiens, UniProt P35346)
Chain of Somatostatin receptor type 5 (P35346 whole entry): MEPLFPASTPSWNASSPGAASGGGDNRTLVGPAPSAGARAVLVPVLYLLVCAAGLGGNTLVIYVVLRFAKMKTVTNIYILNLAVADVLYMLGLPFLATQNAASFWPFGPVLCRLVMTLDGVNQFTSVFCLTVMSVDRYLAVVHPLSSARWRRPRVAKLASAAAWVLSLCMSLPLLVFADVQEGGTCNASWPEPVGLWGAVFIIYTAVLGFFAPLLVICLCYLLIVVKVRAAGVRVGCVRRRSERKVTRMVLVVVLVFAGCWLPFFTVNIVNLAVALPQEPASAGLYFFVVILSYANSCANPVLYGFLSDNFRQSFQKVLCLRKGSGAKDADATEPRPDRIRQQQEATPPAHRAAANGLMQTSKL

[2] = biological target: Somatostatin receptor type 3 (Homo sapiens, UniProt P32745)
Chain of Somatostatin receptor type 3 (P32745 whole entry): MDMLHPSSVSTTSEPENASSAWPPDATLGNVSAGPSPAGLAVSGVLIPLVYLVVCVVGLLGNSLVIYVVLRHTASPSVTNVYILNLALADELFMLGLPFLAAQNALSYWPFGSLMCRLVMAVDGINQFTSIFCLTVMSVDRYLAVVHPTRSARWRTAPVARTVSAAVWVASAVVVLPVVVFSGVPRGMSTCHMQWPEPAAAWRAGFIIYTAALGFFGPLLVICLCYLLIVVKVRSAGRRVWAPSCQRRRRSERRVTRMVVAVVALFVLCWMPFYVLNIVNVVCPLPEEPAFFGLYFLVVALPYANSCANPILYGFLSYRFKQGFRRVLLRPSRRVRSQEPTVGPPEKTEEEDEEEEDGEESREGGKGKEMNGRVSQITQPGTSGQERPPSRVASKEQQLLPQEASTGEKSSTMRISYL

[3] = biological target: Somatostatin receptor type 1 (Homo sapiens, UniProt P30872)
Chain of Somatostatin receptor type 1 (P30872 whole entry): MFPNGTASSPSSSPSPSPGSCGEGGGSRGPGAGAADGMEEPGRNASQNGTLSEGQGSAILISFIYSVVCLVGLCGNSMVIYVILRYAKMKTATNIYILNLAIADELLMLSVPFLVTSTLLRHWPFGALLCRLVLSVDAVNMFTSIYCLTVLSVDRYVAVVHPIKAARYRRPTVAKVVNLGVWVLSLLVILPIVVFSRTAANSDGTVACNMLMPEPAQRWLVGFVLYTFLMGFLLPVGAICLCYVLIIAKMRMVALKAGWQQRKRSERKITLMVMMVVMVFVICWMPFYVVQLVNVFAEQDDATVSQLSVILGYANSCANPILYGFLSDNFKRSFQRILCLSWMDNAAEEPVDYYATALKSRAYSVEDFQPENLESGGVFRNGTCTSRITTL

[4] = biological target: Somatostatin receptor type 2 (Homo sapiens, UniProt P30874)
Chain of Somatostatin receptor type 2 (P30874 whole entry): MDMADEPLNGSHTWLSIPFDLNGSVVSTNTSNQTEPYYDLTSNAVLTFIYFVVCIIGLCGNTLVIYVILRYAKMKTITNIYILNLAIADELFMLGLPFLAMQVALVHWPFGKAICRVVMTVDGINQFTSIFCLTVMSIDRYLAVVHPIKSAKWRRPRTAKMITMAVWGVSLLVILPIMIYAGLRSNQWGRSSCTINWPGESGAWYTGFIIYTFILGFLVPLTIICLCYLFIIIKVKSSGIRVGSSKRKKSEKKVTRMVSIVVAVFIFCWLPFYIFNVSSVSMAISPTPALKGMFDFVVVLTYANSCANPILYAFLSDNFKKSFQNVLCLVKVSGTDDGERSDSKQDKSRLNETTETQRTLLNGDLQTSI

[5] = biological target: Somatostatin receptor type 4 (Homo sapiens, UniProt P31391)
Chain of Somatostatin receptor type 4 (P31391 whole entry): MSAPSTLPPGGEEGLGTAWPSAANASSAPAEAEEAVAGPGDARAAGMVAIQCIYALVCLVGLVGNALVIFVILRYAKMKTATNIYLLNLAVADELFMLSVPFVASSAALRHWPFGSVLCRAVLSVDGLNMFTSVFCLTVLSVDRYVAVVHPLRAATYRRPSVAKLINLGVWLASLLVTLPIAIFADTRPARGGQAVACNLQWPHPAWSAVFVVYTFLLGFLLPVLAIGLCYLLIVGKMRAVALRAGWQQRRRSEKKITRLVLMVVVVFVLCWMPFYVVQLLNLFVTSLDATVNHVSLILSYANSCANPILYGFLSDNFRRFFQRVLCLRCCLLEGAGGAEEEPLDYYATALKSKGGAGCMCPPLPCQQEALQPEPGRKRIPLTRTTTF

| Ki [1] [nM] | Ki [2] [nM] | Ki [3] [nM] | Ki [4] [nM] | Ki [5] [nM] | SMILES |
| --- | --- | --- | --- | --- | --- |
| 12.6 | 100 | 100 | 200 | 100 | CC(C)[C@H](NC(=O)[C@H](CCCCN)NC(=O)[C@@H](Cc1c[nH]c2ccccc12)NC(=O)[C@H](Cc1ccc(O)cc1)NC(=O)[C@H](Cc1ccccc1)NC(=O)[C@H](N)Cc1ccccc1)C(=O)N[C@@H](Cc1ccccc1)C(=O)N[C@H](Cc1cccc2ccccc12)C(N)=O [BIM 23056] (H-[dF]FY[dW]KVF[d1Nal]-NH2) |
|  |  |  | 0.07 |  | CC(C)[C@@H]1NC(=O)[C@H](CCCCN)NC(=O)[C@@H](Cc2c[nH]c3ccccc23)NC(=O)[C@H](Cc2ccc(O)cc2)NC(=O)[C@@H](NC(=O)[C@H](N)Cc2ccccc2)CSSC[C@@H](C(=O)N[C@@H](Cc2c[nH]c3ccccc23)C(N)=O)NC1=O [CAS_71306] (H-[dF]CY[dW]KVCW-NH2; disulfide 2-7) |
| 1.58 | 1.99 | 6.3 | 7.94 | 15.8 | C[C@@H](O)[C@H](NC(=O)[C@H](Cc1ccccc1)NC(=O)[C@@H](NC(=O)[C@H](CCCCN)NC(=O)[C@@H](Cc1c[nH]c2ccccc12)NC(=O)[C@H](Cc1ccccc1)NC(=O)[C@H](Cc1ccccc1)NC(=O)[C@H](N)Cc1ccccc1)[C@@H](C)O)C(N)=O [CAS_133073-82-2] (H-[dF]FF[dW]KTFT-NH2) |
| 2.51 | 0.39 | 3.98 | 0.79 | 1.99 | C[C@@H](O)[C@@H]1NC(=O)[C@H](Cc2ccc(O)cc2)NC(=O)[C@H]([C@@H](C)O)NC(=O)[C@H](CCCCN)NC(=O)[C@H](Cc2c[nH]c3ccccc23)NC(=O)[C@H](Cc2ccccc2)NC(=O)[C@H](Cc2ccccc2)NC(=O)[C@H](CC(N)=O)NC(=O)[C@H](CCCCN)NC(=O)CCCCC[C@@H](C(=O)O)NC(=O)[C@H](CO)NC1=O [CGP-23996] (KNFFWKTYTS[Asu]-OH; lactam N-11) |
| 0.1 | 6.3 | 100 | 0.79 | 100 | C[C@@H](O)[C@@H]1NC(=O)[C@H](CCCCN)NC(=O)[C@@H](Cc2c[nH]c3ccccc23)NC(=O)[C@H](Cc2c[nH]c3ccccc23)NC(=O)[C@H](Cc2ccccc2)NC(=O)CCCCCCNC(=O)[C@H](Cc2ccccc2)NC1=O [L-362855] (cyclo([Ahp]FW[dW]KTF)) |
| 5.01 | 100 | 100 | 1.58 | 100 | CC(=O)N(CC(=O)NC1CSSCC(C(=O)NC(Cc2c[nH]c3ccccc23)C(N)=O)NC(=O)C(C(C)C)NC(=O)C(CCCCN)NC(=O)C(Cc2c[nH]c3ccccc23)NC(=O)C(Cc2ccc(O)cc2)NC1=O)Cc1ccccc1 (stereo not drawn) [RC 160II] (Ac-[Nphe]CYWKVCW-NH2; disulfide 2-7; configuration not given here) |
| 12.6 | 100 | 794 | 126 | 100 | CSCC[C@@H]1NC(=O)[C@@H](NC(=O)[C@H](CC(N)=O)NC(=O)[C@H](CC(C)C)NC(=O)[C@@H]2CCCN2C(=O)[C@H](CCCCN)NC(=O)[C@H](CO)NC(=O)[C@@H](NC(=O)[C@@H](NC(=O)[C@@H](NC(=O)[C@H](CC(N)=O)NC(=O)[C@@H](N)CC(=O)O)[C@@H](C)O)C(C)C)[C@@H](C)O)CSSC[C@@H](C(=O)O)NC(=O)[C@H](C)NC(=O)[C@H]([C@@H](C)O)NC(=O)[C@H](CCCN=C(N)N)NC(=O)[C@H](CO)NC(=O)[C@H](CCCCN)NC(=O)[C@H](Cc2c[nH]c3ccccc23)NC(=O)[C@H](Cc2ccccc2)NC(=O)[C@H](Cc2ccc(O)cc2)NC(=O)[C@H](CC(N)=O)NC1=O [SS-22] (H-DNTVTSKPLNCMNYFWKSRTAC-OH; disulfide 11-22) |
| 0.19 | 0.5 | 0.79 | 0.31 | 1 | CSCC[C@H](NC(=O)[C@H](C)NC(=O)[C@@H]1CCCN1C(=O)[C@H](CC(N)=O)NC(=O)[C@@H](N)CO)C(=O)N[C@@H](C)C(=O)N1CCC[C@H]1C(=O)N[C@@H](CCCN=C(N)N)C(=O)N[C@@H](CCC(=O)O)C(=O)N[C@@H](CCCN=C(N)N)C(=O)N[C@@H](CCCCN)C(=O)N[C@@H](C)C(=O)NCC(=O)N[C@H]1CSSC[C@@H](C(=O)O)NC(=O)[C@H](CO)NC(=O)[C@H]([C@@H](C)O)NC(=O)[C@H](Cc2ccccc2)NC(=O)[C@H]([C@@H](C)O)NC(=O)[C@H](CCCCN)NC(=O)[C@H](Cc2c[nH]c3ccccc23)NC(=O)[C@H](Cc2ccccc2)NC(=O)[C@H](Cc2ccccc2)NC(=O)[C@H](CC(N)=O)NC(=O)[C@H](CCCCN)NC1=O [SS-25] (H-SNPAMAPRERKAGCKNFFWKTFTSC-OH; disulfide 14-25) |
| 316 | 398 | 398 | 2510 | 3160 | C[C@@H](OCc1ccccc1)[C@@H]1NC(=O)[C@H](CCCCN)NC(=O)[C@@H](Cc2c[nH]c3ccccc23)NC(=O)[C@H](Cc2ccccc2)NC(=O)CCCCCCNC1=O [c[Aha-Phe-D-Trp-Lys-Thr(Bzl)]] (cyclo([Ahp]F[dW]KT(Bn))) |

| SMILES | Ki [1] [nM] | Ki [2] [nM] | Ki [3] [nM] | Ki [4] [nM] | Ki [5] [nM] |
| --- | --- | --- | --- | --- | --- |
| C[C@@H](O)[C@@H]1NC(=O)[C@H](CCCCN)NC(=O)[C@@H](Cc2c[nH]c3ccccc23)NC(=O)[C@H](Cc2ccccc2)NC(=O)[C@@H]2CCCN2C(=O)[C@H](Cc2ccccc2)NC1=O (cyclo(PF[dW]KTF)) | 39.8 | 126 | 631 | 0.63 | 100 |
| CC(C)[C@@H]1NC(=O)[C@H](CCCCN)NC(=O)[C@@H](Cc2c[nH]c3ccccc23)NC(=O)[C@H](Cc2ccc(O)cc2)NC(=O)[C@@H](NC(=O)[C@H](N)Cc2ccc3ccccc3c2)CSSC[C@@H](C(=O)N[C@H](C(N)=O)[C@@H](C)O)NC1=O [3-(2-Naphtyl)-D-Ala-L-Cys(1)-L-Tyr-D-Trp-L-Lys-L-Val-L-Cys(1)-L-Thr-NH2] |  | 63.1 |  | 0.5 |  |
